Marks after values point to notes of the source that are not given here.
What was measured:
HL-60 cells = experiment: Apoptosis of HL-60 cells, DAPI staining of nuclear chromatin; type: cell-based; details: for Apoptic Cell Percentage: 24 hours
Protocol: Morphological changes in the nuclear chromatin of HL-60 cells undergoing apoptosis were detected by staining with 4′,6-diamidino-2-phenylindole (DAPI). In brief, 0.5×10^6 to 3×10^6 cells were fixed with 4% glutaraledebyde, 0.2% Triton x-100, in PBS and incubated at room temperature for 10 min., then centrifuged at 1000×g for 10 min., resuspended in 20 μl 0.1% DAPI ethanol. Following 15 min, incubation at room temperature, at 10 μl aliquot was placed on a glass slide, and 400 cells per slide were scored for the incidence of apoptotic chromatin changes with a fluorescence microscope.

EL4 thymocytes = experiment: M phase arrest, alpha-tubulin immunofluorescence and flow cytometry; type: cell-based; details: thymocyte cells, 20 μM Noscapine, 24 hr
Protocol: (§1) Hela cells were grown in DMEM supplemented with 10% fetal calf serum, 1 mM L-glutamine and 1% penicillin/−streptomycin. The tumor cell line E.G7-OVA (H-2^b) [Moore, M. W., et al., Cell 54,777 (1988)] was grown in RPMI 1640 with 10% fetal calf serum, 1% sodium pyruvate, 1 mM L-glutamine, 0.1% gentamycin, 50 μM β-mercaptoethanol. Cells were grown at 37° C. in a 5% CO2 atmosphere. Cell viability was assessed by trypan blue exclusion analysis. Cell numbers were determined using a hemacytometer. C57BL/6(H-2^b) mice, 8 to 12 weeks of age, were obtained from Harian Sprague Dawley, Inc. (Indiananapolis, Ind.). Mice were maintained on standard laboratory chow and water ad libitum in a temperature and light controlled environment. For immunofluorescence, both Hela and thymocyte cells were treated identically except the Hela cells were grown onto glass coverslips while EL4 thymocytes were put on glass coverslips after fixation. Cells in 10 ml medium were incubated with 2 μl DMSO or 20 μM Noscapine (2 μl 0.1 M DMSO solution) respectively. After 24 hr, cells were fixed with cold (−20° C.) methanol for 5 min., then rehydrated by PBS for 1 min. Nonspecific sites were blocked by incubating with 200 μl of 1% bovine serum albumin (BSA) in phosphate buffered saline (PBS) at 37° C. for 15 minutes. […] Cells were examined with a fluorescence microscope. […] The samples were read on a cytometer.

Hela cells = experiment: as above; type: cell-based; details: 20 μM Noscapine, 24 hr
Protocol: as §1

lymphocyte cells = experiment: Apoptosis: oligonucleosomal DNA fragmentation, DAPI staining and nick end labeling; type: cell-based; details: 20 μM Noscapine, 0 to 24 hr
Protocol: Oligonucleosomal fragmentation of genomic DNA was determined according to Walton, M. I. et. al., Cancer. Res. 53, 1853 (1993). An aliquot of 3.3×10^6 cells in 10 ml medium was incubated with 20 μM Noscapine ([…] DMSO solution) for different time periods ranging from 0 to 24 hr. At the end of incubation, cells were pelleted and washed twice with ice cold PBS, and lysed in 250 μl 1% (v/v) NP 40 detergent containing 0.5 mg/ml proteinase K in PBS solution on ice for 60 min. Samples were centrifuged, and the supernatants were removed and incubated with 5 μl 10 mg/ml RNase A at 37° C. for 40 min. An aliquot of 1 ml anhydrous ethanol was added, tubes were placed at −20° C. for 20 min., then centrifuged to pellet DNA. After the samples were dry, the same amount of DNA (10 μg) was electrophoresed at 80V for 3 hr. through a 2% agarose gel containing ethidium bromide in TAB buffer. DNA bands were visualized under […]. […]
Morphological changes in the nuclear chromatin of cells undergoing apoptosis were detected by staining with 4′,6-diamidino-2-phenylindole (DAPI). […] Following 15 min. incubation at room temperature, a 10 μl aliquot was placed on a glass slide, and 400 cells per slide were scored for the incidence of apoptotic chromatin changes with a fluorescence microscope. […] After the slides were rinsed with PBS for another 3 times, coverslips were mounted and analyzed with a light microscope.

solid lymphoid tumors = experiment: Apoptosis in solid lymphoid tumors induced in mice (H&E microscopy); type: in vivo; details: Haemotoxline and Eosine stained cells
human breast tumors = details: nude mice; cited from earlier work

**Q.** For `COc1ccc2c(c1OC)C(=O)O[C@@H]2[C@H]1c2c(cc3c(c2OC)OCO3)CCN1C` [Noscapine], which “Apoptic Cell Percentage” value (HL-60 cells; 20 μM in DMSO, two trials, result for each trial shown) is on record?
**A.** 30.17† %

**Q.** What about the “Apoptic Cell Percentage” value (HL-60 cells; 50 μM in DMSO) of the same molecule?
**A.** 27%

**Q.** And the Initiation of apoptosis (HL-60 cells; DAPI staining)?
**A.** initiate apoptosis

**Q.** And the “M phase arrest of microtubule arrays” value (EL4 thymocytes)?
**A.** arrested in M phase

**Q.** And the “M phase arrest of microtubule arrays” value (Hela cells)?
**A.** arrested in M phase

**Q.** What about the “DNA degradation (gel electrophoresis of fragmented genomic DNA, staining)” value (lymphocyte cells) of the same molecule?
**A.** progressive DNA degradation with increasing time of noscapine treatment

**Q.** What about the “apoptotic morphologies in tumor cells” value (solid lymphoid tumors) of the same molecule?
**A.** many cells in noscapine treated mice with apoptotic morphologies

**Q.** And the “regression of human breast tumors” value (human breast tumors)?
**A.** caused regression

— patent US7090853B2, “Noscapine derivatives as adjuvant compositions and methods of use thereof” (Emory University, priority 1999, dated 2006)
